Results from patent publication US20120046273A1, “COMPOUNDS AND COMPOSITIONS FOR COGNITION-ENHANCEMENT, METHODS OF MAKING, AND METHODS OF TREATING” (MITHRIDION, INC., priority 2009, published 2012).

Experiments:
human FMO1 Supersomes = molecular target: T1, human FMO1 Supersomes (Homo sapiens, UniProt Q01740); experiment: Metabolism by flavin monoxygenase 1 (FMO1) Supersomes; assay type: in vitro ADME
T1 construct: purchased BD Biosciences 456241
T1 sequence (Q01740 1-532): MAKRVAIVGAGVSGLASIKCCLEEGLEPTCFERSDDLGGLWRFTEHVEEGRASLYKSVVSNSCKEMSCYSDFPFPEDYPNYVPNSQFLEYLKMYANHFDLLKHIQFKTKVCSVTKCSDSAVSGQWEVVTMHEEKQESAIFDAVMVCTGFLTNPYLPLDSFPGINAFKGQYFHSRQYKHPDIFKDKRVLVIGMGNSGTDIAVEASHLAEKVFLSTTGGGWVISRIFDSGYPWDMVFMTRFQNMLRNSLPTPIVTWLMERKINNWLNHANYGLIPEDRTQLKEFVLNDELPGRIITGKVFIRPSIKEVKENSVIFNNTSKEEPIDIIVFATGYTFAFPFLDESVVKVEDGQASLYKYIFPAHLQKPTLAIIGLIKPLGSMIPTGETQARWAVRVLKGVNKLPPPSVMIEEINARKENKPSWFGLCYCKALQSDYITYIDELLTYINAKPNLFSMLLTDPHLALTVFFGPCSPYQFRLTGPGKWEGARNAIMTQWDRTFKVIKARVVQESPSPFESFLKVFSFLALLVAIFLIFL
Procedure: […] Aliquots were removed every 10 minutes, and 1% formic acid was added to halt the reaction. Samples were centrifuged, filtered through 0.2 micron spinfilter and the amount of each compound in the supernatants was quantitated using LC/MS/MS.

[1] = system: pooled male human liver microsomes; experiment: Metabolism by human liver microsomes; assay type: in vitro ADME; conditions: 6 hours incubation
Procedure: Compounds were incubated with pooled male human liver microsomes (BD Biosciences, #452172) and an NADP-regenerating system in a phosphate buffer (pH 7.4) for a total of 6 hours. Aliquots were removed every 2 hours, and 1% formic acid was added to halt the reaction. Samples were centrifuged, filtered through 0.2 micron spinfilter and the amount of each compound in the supernatants was quantitated using LC/MS/MS.

[2] = rat, in vivo, po, 1 hour

Cc1noc(C2CCCNC2)n1 (racemic) [Compound 82, 3-Methyl-5-(piperidin-3-yl)-1,2,4-oxadiazole]
extent of metabolism in FMO Supersomes (human FMO1 Supersomes): less than half metabolized
extent of metabolism in human liver microsomes [1]: metabolized significantly less in human liver microsomes than in rat liver microsomes
Brain/plasma ratio [2]: 2.38
